We go through 2 sequences from article PMC10541502 (Science Advances, 2023).

The series relates to C57BL/6 mice. Particulars: mouse.

Ends that are not written are not given here.

Take MSPSILKHWSRQGGGKKLLGLLLKLKLK [F6P6]: the “In vivo toxicity, overall finding” value is on record as “did not induce primary toxic irritation”. As to MSPSILKHWSRQGGGKLKKLLLGLLLKK [F6P1], the “In vivo toxicity, overall finding” value is “did not induce primary toxic irritation”.
